Measurements from paper PMC8597757, “Pharmacokinetic and Safety Profile of the Novel HIV Nonnucleoside Reverse Transcriptase Inhibitor MK-8507 in Adults without HIV” (Antimicrobial Agents and Chemotherapy, 2021).
Entries after “also recorded” stand apart in the source; their conditions may differ. Where two headings read alike, the source gives them in different places.

How the values were obtained:
[1] = Cross-study formulation comparison, 400 mg tablet vs suspension; assay type: in vivo, human
Experimental: Statistical analyses were performed using SAS software version 9.3 (SAS Institute Inc., Cary, NC, USA). […] The least-squares geometric mean (GM) and corresponding 95% CIs obtained from the models were exponentiated to provide estimates for the population GMs and CIs on the original scales. To assess the effect of food, 90% CIs were calculated for the GMR (fed/fasted) of MK-8507 AUC0-∞, Cmax, and C168hr. […] The point estimates and the corresponding 95% CIs were obtained from the model for GM of each formulation; the GMR and 90% CIs comparing tablet to suspension were estimated using the model.

[2] = Multiple-dose (once weekly for 3 weeks) plasma pharmacokinetics of MK-8507 tablet; assay type: in vivo, human; details: for AUC(0-t) / concentration at 168 h / Cmax / Tmax / half-life: human, plasma, oral; for AUC(0-t): read-out: AUC0–168 (geometric mean [95% CI]); for concentration at 168 h: read-out: C168hr (geometric mean [95% CI]); for Cmax: read-out: Cmax (geometric mean [95% CI])
Experimental: MK-8507 in plasma was extracted by protein precipitation and analyzed by reversed-phase chromatographic separation coupled with tandem mass spectrometric detection by Merck & Co., Inc. (West Point, PA, USA). The liquid chromatography-tandem mass spectrometric (LC-MS/MS) system consisted of a Waters Acquity ultraperformance liquid chromatography system (Waters Corporation, Milford, MA, USA) employing a turbo ionspray interface in the negative ion mode. The lower limit of quantitation was 1.0 ng/mL (2.03 nM) with a linear calibration range from 1.0 to 1000 ng/mL. The mean intrarun accuracy was 94.8 to 113% (precision, ≤6.2% coefficient of variation [CV]), and the mean interrun accuracy was 94.4 to 103.0% (precision, ≤8.6% CV). […] The AUC0-168hr and […] group was not statistically significant at the 0.05 level and was therefore omitted from the final model. An overall slope was estimated across all groups.

[3] = Safety and tolerability in phase 1 studies; assay type: in vivo, human
Experimental: The safety and tolerability of MK-8507 were assessed by clinical evaluation, including vital signs, 12-lead electrocardiograms, laboratory safety tests, and clinical monitoring of AEs.

[4] = system: HIV-1; assay: PK target of Ctrough >=6 x IC50 (in vitro potency); details: Human immunodeficiency virus 1; Ctrough target expected to achieve antiviral efficacy; meta-analysis ref 20; read-out: 6 × IC50 threshold (PK target for C168hr)
Experimental: The plasma PK profile of MK-8507 is supportive of QW administration. Following oral administration, MK-8507 is readily absorbed, with a Tmax of ∼2 to 7 h followed by a biphasic decline in plasma concentration. […] Concentration at trough is the PK parameter generally associated with antiviral efficacy of HIV treatment ([20][–][23]). Based on a meta-analysis of Ctrough normalized by in vitro potency and viral load data from other NNRTIs ([20]), a PK target of Ctrough ≥6 × 50% inhibitory concentration (IC50) is a threshold expected to achieve antiviral efficacy as part of combination therapy. […] These PK results support further development of MK-8507 as a QW oral agent for treatment of HIV administered as part of a complete treatment regimen together with islatravir.

[5] = Single-dose plasma pharmacokinetics of MK-8507 (suspension, study 1; tablet, study 2); assay type: in vivo; details: human, fasted; for AUC(0-inf): n=6, read-out: AUC0-∞ (geometric mean [95% CI]); for AUC(0-t): n=6, read-out: AUC0–168 (geometric mean [95% CI]); for half-life: n=6, read-out: Apparent terminal t½ (geometric mean [%GVC]) (converted); for concentration at 168 h: n=6, read-out: C168hr (geometric mean [95% CI]); for Cmax: n=6, read-out: Cmax (geometric mean [95% CI])
[6] = system: CYP3A4; details: preclinical in vitro studies, no reference given; cited from earlier work
[7] = 100 mg tablet once weekly for 3 weeks, n=6
[8] = 200 mg tablet once weekly for 3 weeks, n=5/6
[9] = 400 mg tablet once weekly for 3 weeks, n=6
[10] = 100 mg, 100 mg tablet once weekly, wk 1, n=6
[11] = 100 mg, 100 mg tablet once weekly, wk 3, n=6
[12] = 200 mg, 200 mg tablet once weekly, wk 1, n=5/6
[13] = 200 mg, 200 mg tablet once weekly, wk 3, n=5
[14] = 400 mg, 400 mg tablet once weekly, wk 1, n=6
[15] = 400 mg, 400 mg tablet once weekly, wk 3, n=6
[16] = po, 2 mg, single oral dose 2 mg, suspension
[17] = po, 10 mg, single oral dose 10 mg, suspension
[18] = po, 30 mg, single oral dose 30 mg, suspension
[19] = po, 100 mg, single oral dose 100 mg, suspension
[20] = po, 200 mg, single oral dose 200 mg, suspension
[21] = po, 400 mg, single oral dose 400 mg, suspension
[22] = po, 400 mg, single oral dose 400 mg, tablet
[23] = po, 800 mg, single oral dose 800 mg, tablet
[24] = po, 1200 mg, single oral dose 1,200 mg, tablet

## N#Cc1cc(Cl)cc(Oc2c(C(F)(F)F)ncn(Cc3cc(C(F)(F)F)c(=O)[nH]n3)c2=O)c1 [MK-8507]
[1]; 400-mg dose
  reduction of Cmax, tablet compared to suspension: 21%
[1]; 400-mg single dose
  GMR (90% CI) tablet/suspension, C168hr: 0.93 (0.66, 1.29)
[2]; [7]
  GMR (accumulation ratio, wk 3/wk 1 [90% CI]) of AUC0–168: 1.18 (1.12–1.25)
  GMR (accumulation ratio, wk 3/wk 1 [90% CI]) of C168hr: 1.14 (0.87–1.50)
  GMR (accumulation ratio, wk 3/wk 1 [90% CI]) of Cmax: 1.12 (0.96–1.30)
[2]; [8]
  GMR (accumulation ratio, wk 3/wk 1 [90% CI]) of AUC0–168: 1.23 (1.16–1.31)
  GMR (accumulation ratio, wk 3/wk 1 [90% CI]) of C168hr: 1.22 (0.90–1.65)
  GMR (accumulation ratio, wk 3/wk 1 [90% CI]) of Cmax: 1.15 (0.98–1.36)
[2]; [9]
  GMR (accumulation ratio, wk 3/wk 1 [90% CI]) of AUC0–168: 1.23 (1.16–1.31)
  GMR (accumulation ratio, wk 3/wk 1 [90% CI]) of C168hr: 1.21 (0.92–1.59)
  GMR (accumulation ratio, wk 3/wk 1 [90% CI]) of Cmax: 1.06 (0.91–1.23)
[2]; QW over 3 weeks, 100-mg, 200-mg, 400-mg doses
  accumulation with multiple dosing: minimal accumulation; also recorded: modest accumulation
[2]; QW over 3 weeks, 100-mg, 200-mg, 400-mg doses, range
  accumulation GMR (day 36, day 22), C168hr: 1.14 to 1.22
[2]; [10]
  AUC(0-t): 157 µM·h
  concentration at 168 h: 320 nM
  Cmax: 2940 nM
[2]; 100 mg, 100 mg tablet once weekly, wk 1, n=6, read-out: Tmax (median [min, max])
  Tmax: 3 h
[2]; 100 mg, 100 mg tablet once weekly, wk 2, n=6
  concentration at 168 h: 390 nM
[2]; [11]
  AUC(0-t): 185 µM·h
  concentration at 168 h: 370 nM
  Cmax: 3290 nM
[2]; 100 mg, 100 mg tablet once weekly, wk 3, n=6, read-out: Apparent terminal t½ (geometric mean [%GVC]) (converted)
  half-life: 66.7 h
[2]; 100 mg, 100 mg tablet once weekly, wk 3, n=6, read-out: Tmax (median [min, max])
  Tmax: 3.03 h
[2]; [12]
  AUC(0-t): 285 µM·h
  concentration at 168 h: 590 nM
  Cmax: 4870 nM
[2]; 200 mg, 200 mg tablet once weekly, wk 1, n=5/6, read-out: Tmax (median [min, max])
  Tmax: 5 h
[2]; 200 mg, 200 mg tablet once weekly, wk 2, n=5
  concentration at 168 h: 700 nM
[2]; [13]
  AUC(0-t): 352 µM·h
  concentration at 168 h: 720 nM
  Cmax: 5610 nM
[2]; 200 mg, 200 mg tablet once weekly, wk 3, n=5, read-out: Apparent terminal t½ (geometric mean [%GVC]) (converted)
  half-life: 74.2 h
[2]; 200 mg, 200 mg tablet once weekly, wk 3, n=5, read-out: Tmax (median [min, max])
  Tmax: 4.01 h
[2]; [14]
  AUC(0-t): 563 µM·h
  concentration at 168 h: 1230 nM
  Cmax: 10800 nM
[2]; 400 mg, 400 mg tablet once weekly, wk 1, n=6, read-out: Tmax (median [min, max])
  Tmax: 4 h
[2]; 400 mg, 400 mg tablet once weekly, wk 2, n=6
  concentration at 168 h: 1110 nM
[2]; [15]
  AUC(0-t): 694 µM·h
  concentration at 168 h: 1490 nM
  Cmax: 11500 nM
[2]; 400 mg, 400 mg tablet once weekly, wk 3, n=6, read-out: Apparent terminal t½ (geometric mean [%GVC]) (converted)
  half-life: 73.1 h
[2]; 400 mg, 400 mg tablet once weekly, wk 3, n=6, read-out: Tmax (median [min, max])
  Tmax: 4 h
[2]; 400 mg, 100, 200, 400 mg tablet once weekly, range across doses, read-out: geometric mean apparent t1/2
  half-life: 67 to 74 h
[2]; 400 mg, 100, 200, 400 mg tablet once weekly, range across doses, read-out: median time of peak concentration postdose
  Tmax: 3 to 5 h
[3]; both studies
  changes in clinical laboratory assessments, vital signs, electrocardiograms: no clinically meaningful changes; also recorded: No clinically meaningful relationships were observed
  discontinuation due to an adverse experience: no participants discontinued
  seriousness and intensity of adverse events: nonserious and mild in intensity
[3]; single and multiple QW doses
  tolerability: generally well tolerated
[3]; study 1
  participants with cough: 3
  participants with headache: 4
  participants with myalgia: 2
  participants with rhinorrhea: 2
[3]; study 1, single dose
  AEs considered related to MK-8507: none
[3]; study 1, single oral dose of MK-8507
  total nonserious AEs: 38
[3]; study 2, multiple doses
  AEs considered related to MK-8507: none
[3]; study 2, multiple doses of MK-8507
  total nonserious AEs: 13
[3]; study 2, single doses (decreased appetite)
  AEs considered related to MK-8507: One
[3]; study 2, single doses of MK-8507
  total nonserious AEs: 10
[4]
  IC50: 0.148 µg/mL
  PK target concentration for C168hr (6 × IC50): 300 nM
[5]; oral, tablet, range across doses, read-out: median Tmax
  Tmax: 4 to 7 h
[5]; [16]
  AUC(0-inf): 3.82 µM·h
  AUC(0-t): 2.94 µM·h
  half-life: 82.9 h
  concentration at 168 h: 10 nM
[5]; po, 2 mg, single oral dose 2 mg, suspension, n=6, read-out: Tmax (median [min, max])
  Tmax: 2 h
[5]; [17]
  AUC(0-t): 11.9 µM·h
  half-life: 82 h
  concentration at 168 h: 30 nM
[5]; po, 10 mg, single oral dose 10 mg, suspension, n=6, read-out: Tmax (median [min, max])
  Tmax: 2 h
[5]; [18]
  AUC(0-inf): 52 µM·h
  half-life: 77.7 h
  Cmax: 790 nM
[5]; [19]
  AUC(0-inf): 175 µM·h
  AUC(0-t): 139 µM·h
  half-life: 75.9 h
  concentration at 168 h: 300 nM
  Cmax: 2580 nM
[5]; [20]
  AUC(0-inf): 374 µM·h
  half-life: 83.5 h
  concentration at 168 h: 680 nM
  Cmax: 5400 nM
[5]; po, 200 mg, single oral dose 200 mg, suspension, n=6, read-out: Tmax (median [min, max])
  Tmax: 2.02 h
[5]; [21]
  AUC(0-inf): 770 µM·h
  AUC(0-t): 619 µM·h
  half-life: 69.1 h
[5]; po, 400 mg, single oral dose 400 mg, suspension, n=6, read-out: Tmax (median [min, max])
  Tmax: 4 h
[5]; [22]
  AUC(0-inf): 710 µM·h
  AUC(0-t): 606 µM·h
  half-life: 58.3 h
  concentration at 168 h: 1280 nM
  Cmax: 9090 nM
[5]; po, 400 mg, single oral dose 400 mg, tablet, n=6, read-out: Tmax (median [min, max])
  Tmax: 7 h
[5]; [23]
  AUC(0-inf): 1230 µM·h
  AUC(0-t): 989 µM·h
  half-life: 70.9 h
  concentration at 168 h: 2100 nM
  Cmax: 15400 nM
[5]; po, 800 mg, single oral dose 800 mg, tablet, n=6, read-out: Tmax (median [min, max])
  Tmax: 4 h
[5]; [24]
  AUC(0-inf): 1920 µM·h
  AUC(0-t): 1570 µM·h
  half-life: 68.7 h
  concentration at 168 h: 3590 nM
  Cmax: 23600 nM
[5]; po, 1200 mg, single oral dose 1,200 mg, tablet, n=6, read-out: Tmax (median [min, max])
  Tmax: 5 h
[6]
  induction of CYP3A4 expression in vitro: demonstrated the potential to induce expression of CYP3A4
